Measurements reported in ChEMBL document CHEMBL1201862, “PubChem BioAssay data set” (2004).
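1) Cells in 96-well plates. 2) Compound, 48 h, 5 concentrations. 3) Linear interpolation between surrounding doses. 4) Unreached endpoint = highest concentration. GI50 = concentration required for 50% inhibition of growth.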 Activity calls are given as the source filed them. No stated cut-off is given here; in the data, active = GI50 up to about 1.1 µM and inactive = higher.

Tests used:
Assay in all cases: DTP human tumour cell line panel, 48 h
[1] = system: HOP-62
[2] = system: K562
[3] = system: BT-549
[4] = system: SK-MEL-5
[5] = system: IGROV-1
[6] = system: ACHN
[7] = system: LOX IMVI
[8] = system: DU-145
[9] = system: MDA-N
[10] = system: 786-0
[11] = system: U-251
[12] = system: OVCAR-3
[13] = system: M14
[14] = system: SK-OV-3
[15] = system: PC-3
[16] = system: NCI-H522
[17] = system: SK-MEL-2
[18] = system: TK-10
[19] = system: UO-31
[20] = system: COLO 205
[21] = system: OVCAR-5
[22] = system: CCRF-CEM
[23] = system: EKVX
[24] = system: HCT-116
[25] = system: CAKI-1
[26] = system: MDA-MB-435
[27] = system: OVCAR-8
[28] = system: SF-295
[29] = system: A549
[30] = system: HL-60
[31] = system: SW-620
[32] = system: UACC-257
[33] = system: MOLT-4
[34] = system: OVCAR-4
[35] = system: SN12C
[36] = system: MCF7
[37] = system: SF-539
[38] = system: NCI-H23
[39] = system: MDA-MB-231
[40] = system: HT-29
[41] = system: NCI-H226
[42] = system: KM12
[43] = system: SNB-75
[44] = system: UACC-62
[45] = system: NCI/ADR-RES
[46] = system: Hs-578T
[47] = system: RPMI-8226
[48] = system: T47D
[49] = system: SF-268
[50] = system: Malme-3M
[51] = system: SR
[52] = system: HCT-15
[53] = system: RXF 393
[54] = system: A498
[55] = system: SNB-19
[56] = system: SK-MEL-28
[57] = system: NCI-H460
[58] = system: HCC 2998
[59] = system: HOP-92

Cn1c(=N)n[n+]([O-])c2ccccc21
GI50 [1]: 2.45 µM (inactive) | GI50 [2]: 1.59 µM (inactive) | GI50 [3]: 1.87 µM (inactive) | GI50 [4]: 1.83 µM (inactive) | GI50 [5]: 3.59 µM (inactive) | GI50 [6]: 4.9 µM (inactive) | GI50 [7]: 1.62 µM (inactive) | GI50 [8]: 2.26 µM (inactive) | GI50 [9]: 1.9 µM (inactive) | GI50 [10]: 4.24 µM (inactive) | GI50 [11]: 12.3 µM (inactive) | GI50 [12]: 0.895 µM (active) | GI50 [13]: 2.02 µM (inactive) | GI50 [14]: 25.3 µM (inactive) | GI50 [15]: 5.6 µM (inactive) | GI50 [16]: 3.72 µM (inactive) | GI50 [17]: 2.22 µM (inactive) | GI50 [18]: 25.6 µM (inactive) | GI50 [19]: 3.22 µM (inactive) | GI50 [20]: 2.34 µM (inactive) | GI50 [21]: 2.25 µM (inactive) | GI50 [22]: 3.01 µM (inactive) | GI50 [23]: 7.69 µM (inactive) | GI50 [24]: 3.78 µM (inactive) | GI50 [25]: 2.49 µM (inactive) | GI50 [26]: 0.541 µM (active) | GI50 [27]: 13 µM (inactive) | GI50 [28]: 2.98 µM (inactive) | GI50 [29]: 7.38 µM (inactive) | GI50 [30]: 2.79 µM (inactive) | GI50 [31]: 2.12 µM (inactive) | GI50 [32]: 2.71 µM (inactive) | GI50 [33]: 2.03 µM (inactive) | GI50 [34]: 2.48 µM (inactive) | GI50 [35]: 1.84 µM (inactive) | GI50 [36]: 2.18 µM (inactive) | GI50 [37]: 1.99 µM (inactive) | GI50 [38]: 2.07 µM (inactive) | GI50 [39]: 9.42 µM (inactive) | GI50 [40]: 1.68 µM (inactive) | GI50 [41]: 6.98 µM (inactive) | GI50 [42]: 19.9 µM (inactive) | GI50 [43]: 2.01 µM (inactive) | GI50 [44]: 1.09 µM (active)

N#Cc1sc2c(c1OC(=O)c1ccc(C(F)(F)F)cc1)c(=O)n(-c1ccccc1)c(=S)n2-c1ccccc1
GI50 [1]: 31.1 µM (inactive) | GI50 [2]: 28.2 µM (inactive) | GI50 [4]: 24.9 µM (inactive) | GI50 [45]: 27.9 µM (inactive) | GI50 [5]: 21.2 µM (inactive) | GI50 [6]: 26.2 µM (inactive) | GI50 [46]: 26.2 µM (inactive) | GI50 [7]: 24.5 µM (inactive) | GI50 [8]: 38.5 µM (inactive) | GI50 [47]: 17.4 µM (inactive) | GI50 [48]: 34.5 µM (inactive) | GI50 [9]: 29.5 µM (inactive) | GI50 [10]: 32.1 µM (inactive) | GI50 [11]: 20.7 µM (inactive) | GI50 [12]: 19.5 µM (inactive) | GI50 [49]: 33 µM (inactive) | GI50 [13]: 24.2 µM (inactive) | GI50 [14]: 38.5 µM (inactive) | GI50 [50]: 33 µM (inactive) | GI50 [51]: 0.0481 µM (active) | GI50 [15]: 26.7 µM (inactive) | GI50 [16]: 0.107 µM (active) | GI50 [52]: 21.8 µM | GI50 [53]: 14.8 µM (inactive) | GI50 [18]: 27.6 µM (inactive) | GI50 [54]: 26.7 µM (inactive) | GI50 [20]: 21.6 µM (inactive) | GI50 [21]: 49.2 µM (inactive) | GI50 [22]: 10.2 µM (inactive) | GI50 [55]: 34 µM (inactive) | GI50 [23]: 24.9 µM (inactive) | GI50 [24]: 17.8 µM (inactive) | GI50 [25]: 32.4 µM (inactive) | GI50 [56]: 33.8 µM (inactive) | GI50 [57]: 30.3 µM (inactive) | GI50 [26]: 26.5 µM (inactive) | GI50 [27]: 23.2 µM (inactive) | GI50 [28]: 25.6 µM (inactive) | GI50 [29]: 23.3 µM (inactive) | GI50 [30]: 21 µM (inactive) | GI50 [31]: 40.2 µM (inactive) | GI50 [32]: 42.7 µM (inactive) | GI50 [33]: 19.5 µM (inactive) | GI50 [58]: 34.4 µM (inactive) | GI50 [34]: 33.8 µM (inactive) | GI50 [35]: 29.5 µM (inactive) | GI50 [36]: 30.1 µM (inactive) | GI50 [37]: 25.2 µM (inactive) | GI50 [38]: 29.6 µM (inactive) | GI50 [39]: 31.3 µM (inactive) | GI50 [40]: 25.2 µM (inactive) | GI50 [59]: 19.7 µM (inactive) | GI50 [41]: 29.8 µM (inactive) | GI50 [42]: 27.7 µM (inactive) | GI50 [43]: 27.4 µM (inactive) | GI50 [44]: 22.4 µM (inactive)

Nc1c(Br)cc2c(c1Br)Cc1cc(Br)ccc1-2
GI50 [2]: > 100 µM (inactive) | GI50 [4]: > 100 µM (inactive) | GI50 [45]: > 100 µM (inactive) | GI50 [6]: > 100 µM (inactive) | GI50 [46]: > 100 µM (inactive) | GI50 [7]: > 100 µM (inactive) | GI50 [8]: > 100 µM (inactive) | GI50 [48]: > 100 µM (inactive) | GI50 [9]: > 100 µM (inactive) | GI50 [11]: > 100 µM (inactive) | GI50 [12]: > 100 µM (inactive) | GI50 [49]: > 100 µM (inactive) | GI50 [13]: > 100 µM (inactive) | GI50 [14]: > 100 µM (inactive) | GI50 [51]: > 100 µM (inactive) | GI50 [15]: > 100 µM (inactive) | GI50 [16]: > 100 µM (inactive) | GI50 [52]: > 100 µM | GI50 [53]: > 100 µM (inactive) | GI50 [18]: > 100 µM (inactive) | GI50 [19]: > 100 µM (inactive) | GI50 [54]: 0.968 µM (active) | GI50 [20]: > 100 µM (inactive) | GI50 [22]: > 100 µM (inactive) | GI50 [55]: > 100 µM (inactive) | GI50 [24]: > 100 µM (inactive) | GI50 [56]: > 100 µM (inactive) | GI50 [57]: > 100 µM (inactive) | GI50 [26]: > 100 µM (inactive) | GI50 [27]: > 100 µM (inactive) | GI50 [28]: > 100 µM (inactive) | GI50 [29]: > 100 µM (inactive) | GI50 [31]: > 100 µM (inactive) | GI50 [32]: > 100 µM (inactive) | GI50 [33]: > 100 µM (inactive) | GI50 [58]: > 100 µM (inactive) | GI50 [34]: > 100 µM (inactive) | GI50 [35]: > 100 µM (inactive) | GI50 [36]: > 100 µM (inactive) | GI50 [38]: > 100 µM (inactive) | GI50 [39]: > 100 µM (inactive) | GI50 [40]: > 100 µM (inactive) | GI50 [59]: > 100 µM (inactive) | GI50 [41]: > 100 µM (inactive) | GI50 [42]: > 100 µM (inactive) | GI50 [43]: > 100 µM (inactive)

CSc1ccc2c(cc1=O)[C@@H](NC(=O)c1ccc(N)cc1)CCc1cc(O)c(O)c(O)c1-2
GI50 [1]: 14.4 µM (inactive) | GI50 [2]: 12.1 µM (inactive) | GI50 [3]: 16.9 µM (inactive) | GI50 [45]: 18.6 µM (inactive) | GI50 [5]: 20.4 µM (inactive) | GI50 [6]: 17 µM (inactive) | GI50 [8]: > 75 µM (inactive) | GI50 [47]: 35 µM (inactive) | GI50 [48]: 44 µM (inactive) | GI50 [10]: 12.8 µM (inactive) | GI50 [11]: 19.4 µM (inactive) | GI50 [49]: 14.3 µM (inactive) | GI50 [16]: 13.8 µM (inactive) | GI50 [52]: 11.2 µM | GI50 [53]: > 75 µM (inactive) | GI50 [19]: 20.3 µM (inactive) | GI50 [54]: 73.8 µM (inactive) | GI50 [21]: 22 µM (inactive) | GI50 [55]: 21.8 µM (inactive) | GI50 [23]: 36.4 µM (inactive) | GI50 [56]: > 75 µM (inactive) | GI50 [57]: 15 µM (inactive) | GI50 [26]: 14.5 µM (inactive) | GI50 [27]: 26.5 µM (inactive) | GI50 [28]: 17.2 µM (inactive) | GI50 [29]: 19.1 µM (inactive) | GI50 [32]: 20.8 µM (inactive) | GI50 [33]: 33.1 µM (inactive) | GI50 [58]: 13.6 µM (inactive) | GI50 [34]: 16.1 µM (inactive) | GI50 [35]: 29.5 µM (inactive) | GI50 [59]: 29.4 µM (inactive)
